Positions of bridges follow the written chain, without caps; N, C: chain ends. Residues, ends and D or L forms follow the SMILES beside them.
Columns and labels:
[1] = target: T1, neutral endopeptidase (NEP) (Homo sapiens, UniProt P08473); assay: Sensitivity towards proteolytic degradation by neutral endopeptidase (NEP); format: in vitro ADME; conditions: 4 hours incubation with 0.6 μg/ml NEP at 37° C., then activity on the rat receptor cell line
T1 construct: purchased R&D Systems 1182-ZNC

[2] = target: T2, insulin degrading enzyme (IDE) (Rattus norvegicus, UniProt P35559); assay: Sensitivity towards proteolytic degradation by insulin degrading enzyme (IDE); conditions: 4 hours incubation with 0.6 μg/ml IDE at 37° C., then activity on the rat receptor cell line
T2 sequence (P35559 42-1019 limits assumed): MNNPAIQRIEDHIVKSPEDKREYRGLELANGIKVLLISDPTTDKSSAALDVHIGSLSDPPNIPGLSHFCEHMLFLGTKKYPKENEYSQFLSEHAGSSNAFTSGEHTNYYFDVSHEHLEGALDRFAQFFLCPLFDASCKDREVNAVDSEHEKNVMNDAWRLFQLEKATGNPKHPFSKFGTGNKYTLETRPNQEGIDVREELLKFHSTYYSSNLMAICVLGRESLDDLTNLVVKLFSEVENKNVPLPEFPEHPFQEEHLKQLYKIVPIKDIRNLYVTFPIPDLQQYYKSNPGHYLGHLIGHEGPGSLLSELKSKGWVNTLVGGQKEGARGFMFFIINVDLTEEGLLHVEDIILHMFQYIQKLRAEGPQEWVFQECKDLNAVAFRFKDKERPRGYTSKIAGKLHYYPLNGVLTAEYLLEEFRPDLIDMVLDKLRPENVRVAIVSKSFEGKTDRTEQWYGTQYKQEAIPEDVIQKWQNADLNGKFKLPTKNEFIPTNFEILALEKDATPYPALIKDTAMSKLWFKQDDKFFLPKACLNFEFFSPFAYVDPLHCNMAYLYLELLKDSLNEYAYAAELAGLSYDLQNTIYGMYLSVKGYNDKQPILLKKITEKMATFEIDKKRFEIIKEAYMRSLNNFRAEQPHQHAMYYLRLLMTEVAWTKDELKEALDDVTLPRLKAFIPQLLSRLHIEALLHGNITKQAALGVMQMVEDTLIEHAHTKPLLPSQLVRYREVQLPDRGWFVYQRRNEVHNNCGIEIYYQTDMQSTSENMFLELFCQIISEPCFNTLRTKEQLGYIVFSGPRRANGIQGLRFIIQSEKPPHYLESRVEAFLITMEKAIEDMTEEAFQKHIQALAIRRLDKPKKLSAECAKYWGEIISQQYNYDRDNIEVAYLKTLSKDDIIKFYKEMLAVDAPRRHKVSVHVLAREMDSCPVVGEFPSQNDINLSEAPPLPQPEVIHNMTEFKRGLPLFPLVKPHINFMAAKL

T1 sequence (P08473 52-750 limits assumed): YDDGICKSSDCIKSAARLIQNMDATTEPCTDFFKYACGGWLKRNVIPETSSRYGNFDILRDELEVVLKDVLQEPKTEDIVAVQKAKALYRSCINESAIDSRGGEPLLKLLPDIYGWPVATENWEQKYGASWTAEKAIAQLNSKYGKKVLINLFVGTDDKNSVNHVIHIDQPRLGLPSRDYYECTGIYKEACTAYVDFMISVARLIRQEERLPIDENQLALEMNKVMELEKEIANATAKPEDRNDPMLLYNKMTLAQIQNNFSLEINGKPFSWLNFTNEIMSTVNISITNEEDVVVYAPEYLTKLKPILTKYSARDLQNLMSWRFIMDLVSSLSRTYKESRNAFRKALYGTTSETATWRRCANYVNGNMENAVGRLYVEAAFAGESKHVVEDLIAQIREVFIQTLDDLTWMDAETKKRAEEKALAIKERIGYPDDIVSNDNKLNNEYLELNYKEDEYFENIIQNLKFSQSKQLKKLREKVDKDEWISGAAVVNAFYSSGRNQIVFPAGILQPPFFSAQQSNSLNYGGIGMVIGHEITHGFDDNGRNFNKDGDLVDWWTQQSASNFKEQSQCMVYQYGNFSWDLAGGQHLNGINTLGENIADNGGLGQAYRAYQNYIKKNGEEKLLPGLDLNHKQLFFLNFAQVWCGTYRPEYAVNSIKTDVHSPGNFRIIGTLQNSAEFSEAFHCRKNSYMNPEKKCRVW

sensitivity towards proteolytic degradation by NEP [1]: high sensitivity | sensitivity towards proteolytic degradation by IDE [2]: high sensitivity
Compound: CC[C@H](C)[C@@H]1NC(=O)[C@H](CCCNC(=N)N)NC(=O)[C@H](CC(=O)O)NC(=O)[C@H]([C@@H](C)CC)NC(=O)[C@H](CCCCN)NC(=O)[C@H](CCC(N)=O)NC(=O)CNC(=O)[C@H](Cc2ccccc2)NC(=O)[C@@H](NC(=O)[C@H](CO)NC(=O)[C@H](CO)NC(=O)[C@H](CO)NC(=O)[C@H](Cc2c[nH]cn2)NC(=O)[C@H](C)NC(=O)[C@H](CCSC)NC(=O)[C@H](CCCCN)NC(=O)[C@H](CO)NC(=O)[C@@H](N)CC(N)=O)CSSC[C@@H](C(=O)N[C@@H](CC(=O)O)C(=O)NCC(=O)N[C@@H](CC(C)C)C(=O)N[C@@H](CCCNC(=N)N)C(=O)N[C@@H](CC(C)C)C(=O)N[C@@H](Cc2ccccc2)C(=O)O)NC(=O)CNC(=O)[C@H](CC(C)C)NC(=O)[C@H](CCCNC(=N)N)NC(=O)[C@H](CO)NC(=O)[C@H](C(C)C)NC(=O)[C@H](C)NC(=O)CNC1=O [BNP, reference compound] (H-NSKMAHSSSCFGQKIDRIGAVSRLGCDGLRLF-OH; disulfide 10-26; N-terminus and C-terminus assumed)

Reference: patent US12390508B2, “Brain natriuretic peptide engrafted antibodies” (Boehringer Ingelheim International GmbH, priority 2018, dated 2025)
